Measurements published in article PMC10810011 (Expert opinion on drug delivery, 2023).

Key:
beta1 adrenergic = beta1 adrenergic (Homo sapiens, UniProt P08588); test: InVEST radioligand filter binding, beta1 adrenergic; conditions: M13 20 μM, 100 = no effect
D3 dopamine = D3 dopamine (Homo sapiens, UniProt P35462); test: InVEST radioligand filter binding, D3 dopamine; conditions: M13 20 μM, 100 = no effect
Muscarinic M1 = Muscarinic M1 (Homo sapiens, UniProt P11229); format: binding; conditions: M13 20 μM, 100 = no effect
Sequence of Muscarinic M1 (P11229 whole entry): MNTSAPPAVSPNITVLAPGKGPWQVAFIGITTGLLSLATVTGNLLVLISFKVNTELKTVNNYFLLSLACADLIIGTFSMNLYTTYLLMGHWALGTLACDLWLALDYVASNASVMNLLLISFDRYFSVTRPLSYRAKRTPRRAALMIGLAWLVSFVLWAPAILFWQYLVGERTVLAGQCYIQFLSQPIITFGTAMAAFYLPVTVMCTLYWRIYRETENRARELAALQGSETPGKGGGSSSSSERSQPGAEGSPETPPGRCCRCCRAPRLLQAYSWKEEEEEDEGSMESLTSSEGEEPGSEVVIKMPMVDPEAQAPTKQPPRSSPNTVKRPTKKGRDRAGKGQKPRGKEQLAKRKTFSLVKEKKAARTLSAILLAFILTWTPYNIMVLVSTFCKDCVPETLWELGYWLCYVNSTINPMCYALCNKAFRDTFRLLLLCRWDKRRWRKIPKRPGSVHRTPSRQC

5-HT1B = 5-HT1B (Homo sapiens, UniProt P28222); test: InVEST radioligand filter binding, 5-HT1B; conditions: 5-HT1B, M13 20 μM, 100 = no effect
Sequence of 5-HT1B (P28222 whole entry): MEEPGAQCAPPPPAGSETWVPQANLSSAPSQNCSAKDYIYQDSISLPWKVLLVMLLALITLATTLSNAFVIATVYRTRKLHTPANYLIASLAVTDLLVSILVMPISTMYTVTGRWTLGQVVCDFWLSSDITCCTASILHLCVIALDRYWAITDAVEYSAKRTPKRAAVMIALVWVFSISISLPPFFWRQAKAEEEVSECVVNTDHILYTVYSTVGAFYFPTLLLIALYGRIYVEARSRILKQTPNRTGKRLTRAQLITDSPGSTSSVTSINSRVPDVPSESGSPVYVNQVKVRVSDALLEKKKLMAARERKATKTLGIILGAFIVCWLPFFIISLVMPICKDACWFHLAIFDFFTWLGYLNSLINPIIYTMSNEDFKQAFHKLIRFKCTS

PDE3A = PDE3A (Homo sapiens, UniProt Q14432); test: InVEST enzymatic activity, PDE3A; format: biochemical; conditions: M13 20 μM, 100 = no effect
Sequence of PDE3A (Q14432 whole entry): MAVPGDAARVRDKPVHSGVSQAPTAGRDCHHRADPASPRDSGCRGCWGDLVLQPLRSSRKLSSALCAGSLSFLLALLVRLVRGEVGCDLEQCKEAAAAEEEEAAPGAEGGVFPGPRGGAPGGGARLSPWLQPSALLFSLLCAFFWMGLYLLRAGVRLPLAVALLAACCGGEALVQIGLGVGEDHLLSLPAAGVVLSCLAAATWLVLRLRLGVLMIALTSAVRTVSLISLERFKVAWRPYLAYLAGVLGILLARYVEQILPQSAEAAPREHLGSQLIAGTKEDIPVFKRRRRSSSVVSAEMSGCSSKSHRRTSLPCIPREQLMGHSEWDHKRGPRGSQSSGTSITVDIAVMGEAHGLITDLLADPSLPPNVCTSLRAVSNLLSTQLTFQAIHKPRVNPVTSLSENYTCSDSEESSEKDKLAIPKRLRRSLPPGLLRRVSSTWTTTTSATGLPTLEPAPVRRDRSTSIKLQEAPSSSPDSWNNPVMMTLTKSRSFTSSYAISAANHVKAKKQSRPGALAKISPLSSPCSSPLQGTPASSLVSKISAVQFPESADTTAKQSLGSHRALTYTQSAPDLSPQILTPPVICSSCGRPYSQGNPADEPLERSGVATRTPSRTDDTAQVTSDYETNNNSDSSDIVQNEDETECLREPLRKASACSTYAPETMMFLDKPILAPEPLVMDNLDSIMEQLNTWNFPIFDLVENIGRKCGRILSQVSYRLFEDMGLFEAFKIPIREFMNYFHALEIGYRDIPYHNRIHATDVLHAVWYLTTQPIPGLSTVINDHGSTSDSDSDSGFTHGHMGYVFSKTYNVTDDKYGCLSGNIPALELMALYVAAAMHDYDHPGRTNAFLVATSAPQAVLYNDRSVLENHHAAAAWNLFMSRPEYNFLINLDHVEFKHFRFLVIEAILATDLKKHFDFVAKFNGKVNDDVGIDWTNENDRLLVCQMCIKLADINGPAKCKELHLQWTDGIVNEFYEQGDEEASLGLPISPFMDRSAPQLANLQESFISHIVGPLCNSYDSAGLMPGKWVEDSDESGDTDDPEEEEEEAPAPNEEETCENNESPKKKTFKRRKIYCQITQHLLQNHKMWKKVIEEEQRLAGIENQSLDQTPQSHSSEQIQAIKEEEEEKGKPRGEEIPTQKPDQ

Thermodynamic = format: physicochemical; conditions: pure water, room temperature, 24 h
Log D7.4 shake-flask = format: physicochemical; conditions: 1-octanol/phosphate buffer pH 7.4, shake-flask, room temperature
pKa determination = format: physicochemical; conditions: UV metric at pH 2–12
HIEC-6 cells = test: MTT cytotoxicity, 2D HIEC-6; format: cell-based, human; conditions: HIEC-6 (normal intestinal), 24 h
3D Caco-2/BBe cells = test: Cytotoxicity in 3D cultured Caco-2/BBe cells; format: cell-based, human
Caco-2/BBe cells [1] = test: Cancer-related protein expression, Human XL oncology array; format: cell-based; conditions: Caco-2/BBe lysates, 24 h; free M13 5 μg/mL, M13-NL 10 μg/mL (5 μg/mL M13)
AOM/DSS-induced CAC mice = test: AOM/DSS-induced CAC mouse model; format: in vivo; conditions: oral 5 mg/kg every 2 days, day 60
A2A adenosine = A2A adenosine (Homo sapiens, UniProt P29274); conditions: M13 20 μM, 100 = no effect
Sequence of A2A adenosine (P29274 whole entry): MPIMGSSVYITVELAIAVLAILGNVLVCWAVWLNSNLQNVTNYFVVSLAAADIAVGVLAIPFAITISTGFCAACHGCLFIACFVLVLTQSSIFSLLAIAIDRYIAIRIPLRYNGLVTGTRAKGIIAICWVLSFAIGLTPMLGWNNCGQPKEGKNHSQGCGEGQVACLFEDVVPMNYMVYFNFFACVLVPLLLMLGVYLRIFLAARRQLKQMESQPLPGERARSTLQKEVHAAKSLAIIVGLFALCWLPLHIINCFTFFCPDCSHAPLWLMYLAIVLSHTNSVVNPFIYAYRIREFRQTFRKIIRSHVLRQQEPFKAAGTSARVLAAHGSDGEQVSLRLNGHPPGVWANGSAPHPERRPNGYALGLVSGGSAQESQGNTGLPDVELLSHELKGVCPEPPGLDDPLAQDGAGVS

histamine H1 = histamine H1 (Homo sapiens, UniProt P35367); conditions: M13 20 μM, 100 = no effect
Sequence of histamine H1 (P35367 whole entry): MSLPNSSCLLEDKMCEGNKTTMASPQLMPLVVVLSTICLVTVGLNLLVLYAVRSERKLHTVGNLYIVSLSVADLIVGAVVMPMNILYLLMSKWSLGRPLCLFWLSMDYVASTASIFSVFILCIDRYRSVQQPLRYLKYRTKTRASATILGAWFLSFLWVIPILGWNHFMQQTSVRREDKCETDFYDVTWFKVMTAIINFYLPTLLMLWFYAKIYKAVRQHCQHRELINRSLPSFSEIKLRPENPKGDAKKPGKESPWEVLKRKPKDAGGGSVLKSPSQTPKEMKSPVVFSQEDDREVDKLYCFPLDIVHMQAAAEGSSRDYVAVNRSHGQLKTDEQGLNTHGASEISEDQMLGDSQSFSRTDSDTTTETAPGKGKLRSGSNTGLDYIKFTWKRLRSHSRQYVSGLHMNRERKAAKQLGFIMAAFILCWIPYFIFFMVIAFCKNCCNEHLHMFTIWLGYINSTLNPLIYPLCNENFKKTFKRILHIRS

Caco-2/BBe cells [2] = test: MTT cytotoxicity, 2D Caco-2/BBe; conditions: 24 h
AHR-activation = biological target: T1, AHR-activation (Homo sapiens, UniProt P35869); test: InVEST fluorescence polarization binding/cell-based activity, AHR-activation; conditions: M13 20 μM, 100 = no effect
T1 sequence (P35869 11-848): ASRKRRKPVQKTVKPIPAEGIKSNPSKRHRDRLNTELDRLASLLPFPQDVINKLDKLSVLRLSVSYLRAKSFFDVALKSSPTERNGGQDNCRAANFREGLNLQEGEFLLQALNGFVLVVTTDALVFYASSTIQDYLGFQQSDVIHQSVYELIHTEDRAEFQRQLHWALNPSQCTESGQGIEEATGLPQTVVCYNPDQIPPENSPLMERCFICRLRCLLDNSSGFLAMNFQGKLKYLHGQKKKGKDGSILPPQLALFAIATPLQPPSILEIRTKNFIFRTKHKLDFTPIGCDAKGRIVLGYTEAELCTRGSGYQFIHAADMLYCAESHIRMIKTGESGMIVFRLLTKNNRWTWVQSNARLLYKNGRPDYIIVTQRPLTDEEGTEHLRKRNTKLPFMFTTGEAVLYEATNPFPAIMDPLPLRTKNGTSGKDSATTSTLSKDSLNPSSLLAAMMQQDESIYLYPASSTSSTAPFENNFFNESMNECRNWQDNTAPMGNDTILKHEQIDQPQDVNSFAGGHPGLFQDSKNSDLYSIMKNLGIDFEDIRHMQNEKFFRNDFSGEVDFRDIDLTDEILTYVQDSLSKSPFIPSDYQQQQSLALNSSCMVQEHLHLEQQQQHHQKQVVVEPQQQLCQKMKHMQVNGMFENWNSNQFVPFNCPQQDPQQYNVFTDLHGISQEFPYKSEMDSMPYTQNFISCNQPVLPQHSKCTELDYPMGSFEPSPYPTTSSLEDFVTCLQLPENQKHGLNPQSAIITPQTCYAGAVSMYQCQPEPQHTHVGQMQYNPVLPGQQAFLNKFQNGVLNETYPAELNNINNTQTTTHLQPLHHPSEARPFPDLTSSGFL

AHR-inhibition = biological target: T2, AHR-inhibition (Homo sapiens, UniProt P35869); test: InVEST fluorescence polarization binding/cell-based activity, AHR-inhibition; conditions: M13 20 μM, 100 = no effect
T2 sequence (P35869 11-848): T1 sequence (P35869 11-848)

Sequence of beta1 adrenergic (P08588 whole entry): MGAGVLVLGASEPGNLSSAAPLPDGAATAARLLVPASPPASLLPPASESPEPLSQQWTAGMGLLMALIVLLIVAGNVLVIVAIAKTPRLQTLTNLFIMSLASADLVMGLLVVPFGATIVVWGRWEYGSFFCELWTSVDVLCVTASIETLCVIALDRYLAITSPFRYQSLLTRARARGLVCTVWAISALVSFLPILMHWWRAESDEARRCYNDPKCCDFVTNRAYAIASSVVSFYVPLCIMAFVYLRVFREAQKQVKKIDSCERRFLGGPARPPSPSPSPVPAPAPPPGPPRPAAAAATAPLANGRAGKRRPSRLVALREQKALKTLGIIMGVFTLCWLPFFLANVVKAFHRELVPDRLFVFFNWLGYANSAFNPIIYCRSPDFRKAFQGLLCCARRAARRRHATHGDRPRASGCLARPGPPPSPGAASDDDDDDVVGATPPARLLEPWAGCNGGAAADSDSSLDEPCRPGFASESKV
Sequence of D3 dopamine (P35462 whole entry): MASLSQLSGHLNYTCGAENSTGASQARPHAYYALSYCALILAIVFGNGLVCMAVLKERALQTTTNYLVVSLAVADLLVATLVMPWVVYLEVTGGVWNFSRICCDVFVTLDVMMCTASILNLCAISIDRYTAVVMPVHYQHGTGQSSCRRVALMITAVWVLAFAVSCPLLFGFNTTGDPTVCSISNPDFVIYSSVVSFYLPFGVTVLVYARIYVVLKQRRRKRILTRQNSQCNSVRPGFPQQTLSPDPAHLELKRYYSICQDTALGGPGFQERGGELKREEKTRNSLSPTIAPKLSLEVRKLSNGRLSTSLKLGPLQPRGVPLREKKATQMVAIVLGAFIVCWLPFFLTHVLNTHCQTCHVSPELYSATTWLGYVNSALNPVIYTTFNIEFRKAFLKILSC

CCCCCC(CC(=O)CCc1ccc(O)c(OC)c1)SC[C@H](NC(=O)CC[C@H](N)C(=O)O)C(=O)NCC(=O)O (stereo partly drawn) [M13, 5-glutathione-6-shogaol]
% Activity Data 1 (beta1 adrenergic; repetition 1): 120% | % Activity Data 2 (beta1 adrenergic; repetition 2): 116% | % Activity Data 1 (D3 dopamine; repetition 1): 96% | % Activity Data 2 (D3 dopamine; repetition 2): 100% | % Activity Data 1 (Muscarinic M1; repetition 1): 111% | % Activity Data 2 (Muscarinic M1; repetition 2): 113% | % Activity Data 1 (5-HT1B; repetition 1): 100% | % Activity Data 2 (5-HT1B; repetition 2): 102% | % Activity Data 1 (PDE3A; repetition 1): 93% | % Activity Data 2 (PDE3A; repetition 2): 94% | thermodynamic (or equilibrium) solubility (Thermodynamic): 1390.03 µM | LogD7.4 (Log D7.4 shake-flask): −1.75 | pKa1 (pKa determination): 3.24 | pKa2 (pKa determination): 9.12 | pKa3 (pKa determination): 10.42 | IC50 (HIEC-6 cells): > 100 µM | sizes of 3D cell spheres (3D Caco-2/BBe cells; 11 days culture, regardless of the group): did not change significantly | green fluorescence intensity of 3D cell spheres (live cells) vs NC group (3D Caco-2/BBe cells; M13 ≥ 80 μM, day 11, p < 0.05): significantly lower | BCL-x expression vs. Control and statistical significance (Caco-2/BBe cells [1]): Down-regulation, ^* | CCL20/MIP-3α expression vs. Control and statistical significance (Caco-2/BBe cells [1]): Down-regulation, ^** | CEACAM-5 expression vs. Control and statistical significance (Caco-2/BBe cells [1]): Down-regulation, ^* | CXCL8/IL-8 expression vs. Control and statistical significance (Caco-2/BBe cells [1]): Down-regulation, ^* | CapG expression vs. Control and statistical significance (Caco-2/BBe cells [1]): Down-regulation, ^* | Cathepsin B expression vs. Control and statistical significance (Caco-2/BBe cells [1]): Down-regulation, ^* | Cathepsin D expression vs. Control and statistical significance (Caco-2/BBe cells [1]): Down-regulation, ^* | Cathepsin S expression vs. Control and statistical significance (Caco-2/BBe cells [1]): Down-regulation, ^** | Dkk-1 expression vs. Control and statistical significance (Caco-2/BBe cells [1]): Down-regulation, ^** | EGFR expression vs. Control and statistical significance (Caco-2/BBe cells [1]): Down-regulation, ^* | Enolase 2 expression vs. Control and statistical significance (Caco-2/BBe cells [1]): Down-regulation, ^* | ErbB2/Her2 expression vs. Control and statistical significance (Caco-2/BBe cells [1]): Down-regulation, ^** | ErbB3/Her3 expression vs. Control and statistical significance (Caco-2/BBe cells [1]): Down-regulation, ^*** | Galectin-3 expression vs. Control and statistical significance (Caco-2/BBe cells [1]): Down-regulation, * | HNF-3β expression vs. Control and statistical significance (Caco-2/BBe cells [1]): Down-regulation, ^** | HO-1/HMOX1 expression vs. Control and statistical significance (Caco-2/BBe cells [1]): Down-regulation, ^*** | P27/Kip1 expression vs. Control and statistical significance (Caco-2/BBe cells [1]): Down-regulation, ^** | PDGF-AA expression vs. Control and statistical significance (Caco-2/BBe cells [1]): Down-regulation, ^* | Progranulin expression vs. Control and statistical significance (Caco-2/BBe cells [1]): Down-regulation, ^* | Prostasin/Prss8 expression vs. Control and statistical significance (Caco-2/BBe cells [1]): Down-regulation, ^* | Survivin expression vs. Control and statistical significance (Caco-2/BBe cells [1]): Down-regulation, ^*** | TROP1/EpCAM expression vs. Control and statistical significance (Caco-2/BBe cells [1]): Down-regulation, ^*** | number of tumors compared with the AOM/DSS group (AOM/DSS-induced CAC mice): failed to reduce | % Activity Data 1 (A2A adenosine; repetition 1): 99% | % Activity Data 2 (A2A adenosine; repetition 2): 100% | % Activity Data 1 (histamine H1; repetition 1): 102% | % Activity Data 2 (histamine H1; repetition 2): 99% | fold by which IC50 against HIEC-6 is higher than against Caco-2/BBe (Caco-2/BBe cells [2]): 6 fold | IC50 (Caco-2/BBe cells [2]; Caco-2/BBe): 16.7 µM | % Activity Data 1 (AHR-activation; repetition 1): 100% | % Activity Data 2 (AHR-activation; repetition 2): 101% | % Activity Data 1 (AHR-inhibition; repetition 1): 98% | % Activity Data 2 (AHR-inhibition; repetition 2): 101%
